“And” between values parts separate entries of the source, which are not always exact repeats. Equal entries are not always repeated.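 Interpolation was linear, between the two tested concentrations surrounding the appropriate level; five concentrations were tested over 48 hours in 96-well plates. At the GI50, growth is halved. Definition used: TGI = concentration required for complete inhibition of growth.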
Legend:
Experiment in all cases: NCI tumour cell line growth inhibition, 48 h
A549 NSCLC = tested on: A549 NSCLC
LOX IMVI melanoma = tested on: LOX IMVI melanoma
ACHN renal = tested on: ACHN renal
SK-MEL-5 melanoma = tested on: SK-MEL-5 melanoma
DU-145 prostate = tested on: DU-145 prostate
OVCAR-5 ovarian = tested on: OVCAR-5 ovarian
HT29 colon = tested on: HT29 colon
HOP-62 NSCLC = tested on: HOP-62 NSCLC
OVCAR-3 ovarian = tested on: OVCAR-3 ovarian
U251 CNS = tested on: U251 CNS

Q: Which results are given for `CN1CC[C@]2(c3cccc(O)c3)CC(=O)/C(=C/c3ccccc3)[C@H]1C2`?
A: TGI (A549 NSCLC): 11.1 µM; TGI (LOX IMVI melanoma): 4.1 µM; TGI (ACHN renal): 7.03 µM; TGI (SK-MEL-5 melanoma): 9350 nM; GI50 (DU-145 prostate): 3140 nM; TGI (DU-145 prostate): 11.3 µM; GI50 (OVCAR-5 ovarian): 4340 nM; TGI (OVCAR-5 ovarian): 16.1 µM; GI50 (HT29 colon): 3590 nM; TGI (HT29 colon): 12.4 µM; GI50 (HOP-62 NSCLC): 3210 nM; TGI (HOP-62 NSCLC): 10.8 µM; GI50 (OVCAR-3 ovarian): 2640 nM; TGI (OVCAR-3 ovarian): 6.95 µM; TGI (U251 CNS): 9.92 µM

Q: `Cc1cc2nc3ccc(=[N+](C)C)cc-3sc2cc1N` was tested. Which GI50 (A549 NSCLC) did it give?
A: 336 nM and 381 nM

Q: What about the TGI (A549 NSCLC) of the same compound?
A: 1.75 µM and 13.9 µM and 11.2 µM

Q: And the GI50 (LOX IMVI melanoma)?
A: 270 nM and 301 nM

Q: And the TGI (LOX IMVI melanoma)?
A: 1.37 µM and 8.39 µM and 1.4 µM

Q: And the GI50 (ACHN renal)?
A: 844 nM and 1100 nM

Q: What about the GI50 (SK-MEL-5 melanoma) of the same compound?
A: 145 nM and 284 nM

Q: What about the TGI (SK-MEL-5 melanoma) of the same compound?
A: 324 nM and 1810 nM and 1330 nM

Q: And the GI50 (DU-145 prostate)?
A: 1190 nM and 1690 nM

Q: What about the GI50 (OVCAR-5 ovarian) of the same compound?
A: 1370 nM and 833 nM

Q: And the TGI (OVCAR-5 ovarian)?
A: 3.95 µM and 22.5 µM and 3.42 µM

Q: What about the GI50 (HT29 colon) of the same compound?
A: 2090 nM and 2870 nM

Q: What about the TGI (HT29 colon) of the same compound?
A: 5.45 µM and 22.8 µM and 9.44 µM

Q: And the GI50 (HOP-62 NSCLC)?
A: 1040 nM and 1550 nM

Q: What about the TGI (HOP-62 NSCLC) of the same compound?
A: 3.2 µM and 28.9 µM and 5.72 µM

Q: And the GI50 (OVCAR-3 ovarian)?
A: 178 nM and 260 nM

Q: And the TGI (OVCAR-3 ovarian)?
A: 0.992 µM and 9.89 µM and 1.25 µM

Q: And the GI50 (U251 CNS)?
A: 357 nM and 381 nM

Q: What about the TGI (U251 CNS) of the same compound?
A: 2.55 µM and 18.9 µM and 2.11 µM

Q: How did the TGI (A549 NSCLC) turn out when `N#CC1(Nc2ccc(-c3ccc(NC4(C#N)CCCC4)cc3)cc2)CCCC1` was run?
A: > 100 µM

Q: What about the TGI (LOX IMVI melanoma) of the same compound?
A: > 100 µM

Q: And the TGI (ACHN renal)?
A: > 100 µM

Q: And the TGI (SK-MEL-5 melanoma)?
A: > 100000 nM

Q: What about the TGI (DU-145 prostate) of the same compound?
A: > 100 µM

Q: And the TGI (OVCAR-5 ovarian)?
A: > 100 µM

Q: And the TGI (HT29 colon)?
A: > 100 µM

Q: What about the TGI (HOP-62 NSCLC) of the same compound?
A: > 100 µM

Q: And the TGI (OVCAR-3 ovarian)?
A: > 100 µM

Q: What about the TGI (U251 CNS) of the same compound?
A: > 100 µM

Q: What does the source list for `CCCCCc1cc[n+](CC(=O)c2ccc([N+](=O)[O-])cc2)cc1`?
A: GI50 (A549 NSCLC): 4390 nM; TGI (A549 NSCLC): 15 µM; GI50 (LOX IMVI melanoma): 8150 nM; TGI (LOX IMVI melanoma): 22.1 µM; GI50 (ACHN renal): 11000 nM; TGI (ACHN renal): 45.1 µM; GI50 (SK-MEL-5 melanoma): 1950 nM; TGI (SK-MEL-5 melanoma): 4560 nM; GI50 (DU-145 prostate): 8720 nM; TGI (DU-145 prostate): 37.8 µM; GI50 (OVCAR-5 ovarian): 22000 nM; TGI (OVCAR-5 ovarian): 97.9 µM; GI50 (HT29 colon): 2390 nM; TGI (HT29 colon): 8.32 µM; GI50 (HOP-62 NSCLC): 3940 nM; TGI (HOP-62 NSCLC): 28.3 µM; GI50 (OVCAR-3 ovarian): 2780 nM; TGI (OVCAR-3 ovarian): 10.4 µM; GI50 (U251 CNS): 4440 nM; TGI (U251 CNS): 28.2 µM

From PubChem BioAssay (NCI)
